Reference: ChEMBL document CHEMBL1131356, “New generation dopaminergic agents. 2. Discovery of 3-OH-phenoxyethylamine and 3-OH-N1-phenylpiperazine dopaminergic templates” (Bioorg Med Chem Lett, 1998)

Columns and labels:
D(4) dopamine receptor [1] = molecular target: T1, D(4) dopamine receptor (Homo sapiens, UniProt P21917); assay: Binding affinity towards human cloned Dopamine receptor D4.4 expressed in CHO cells using [3H]spiperone as radioligand; format: cell-based
T1 sequence (P21917 whole entry): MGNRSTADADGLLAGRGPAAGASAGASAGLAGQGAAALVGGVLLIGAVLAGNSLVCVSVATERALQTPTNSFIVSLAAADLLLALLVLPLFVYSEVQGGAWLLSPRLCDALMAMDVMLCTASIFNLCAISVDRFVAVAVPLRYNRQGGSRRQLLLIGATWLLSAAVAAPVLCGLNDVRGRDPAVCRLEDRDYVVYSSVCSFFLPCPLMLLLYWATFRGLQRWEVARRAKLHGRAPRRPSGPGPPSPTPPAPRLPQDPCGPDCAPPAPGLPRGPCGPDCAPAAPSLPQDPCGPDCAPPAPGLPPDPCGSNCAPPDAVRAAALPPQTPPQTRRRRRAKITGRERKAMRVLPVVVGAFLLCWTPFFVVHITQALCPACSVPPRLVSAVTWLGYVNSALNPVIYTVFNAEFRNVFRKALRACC

D(2) dopamine receptor [2] = molecular target: T2, D(2) dopamine receptor (Rattus norvegicus, UniProt P61169)
T2 sequence (P61169 whole entry): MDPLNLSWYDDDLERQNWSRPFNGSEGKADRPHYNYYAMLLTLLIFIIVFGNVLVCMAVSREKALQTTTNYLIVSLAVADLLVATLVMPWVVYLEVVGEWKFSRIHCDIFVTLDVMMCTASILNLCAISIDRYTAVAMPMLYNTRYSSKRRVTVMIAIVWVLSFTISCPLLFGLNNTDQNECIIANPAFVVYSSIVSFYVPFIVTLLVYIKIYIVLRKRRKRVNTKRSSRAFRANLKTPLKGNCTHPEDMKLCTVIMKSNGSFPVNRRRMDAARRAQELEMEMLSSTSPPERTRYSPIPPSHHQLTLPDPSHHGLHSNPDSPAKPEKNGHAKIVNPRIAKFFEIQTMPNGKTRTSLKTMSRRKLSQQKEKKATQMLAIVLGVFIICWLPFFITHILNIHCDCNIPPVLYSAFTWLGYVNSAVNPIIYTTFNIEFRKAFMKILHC
Description: Agonistic activity towards dopamine D2 receptor using radioligand [3H]quinpirole in rat striatal membranes

D(3) dopamine receptor = D(3) dopamine receptor (Homo sapiens, UniProt P35462); assay: biochemical
D(3) dopamine receptor, sequence (P35462 whole entry): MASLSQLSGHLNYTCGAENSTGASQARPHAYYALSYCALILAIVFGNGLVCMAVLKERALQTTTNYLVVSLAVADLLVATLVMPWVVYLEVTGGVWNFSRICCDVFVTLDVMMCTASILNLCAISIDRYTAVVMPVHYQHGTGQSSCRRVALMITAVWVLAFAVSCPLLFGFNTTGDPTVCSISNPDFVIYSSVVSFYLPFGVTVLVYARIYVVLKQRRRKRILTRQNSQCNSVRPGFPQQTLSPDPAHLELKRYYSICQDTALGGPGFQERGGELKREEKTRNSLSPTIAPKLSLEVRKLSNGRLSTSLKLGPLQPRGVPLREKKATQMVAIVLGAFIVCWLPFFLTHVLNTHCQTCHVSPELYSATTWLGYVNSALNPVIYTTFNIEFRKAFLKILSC
Description: Binding affinity towards human cloned dopamine (hD3) receptor expressed in CHO cells using [3H]spiperone as radioligand

D(2) dopamine receptor [3] = molecular target: D(2) dopamine receptor (Homo sapiens, UniProt P14416); assay: biochemical
D(2) dopamine receptor (Homo sapiens, UniProt P14416), sequence (P14416 whole entry): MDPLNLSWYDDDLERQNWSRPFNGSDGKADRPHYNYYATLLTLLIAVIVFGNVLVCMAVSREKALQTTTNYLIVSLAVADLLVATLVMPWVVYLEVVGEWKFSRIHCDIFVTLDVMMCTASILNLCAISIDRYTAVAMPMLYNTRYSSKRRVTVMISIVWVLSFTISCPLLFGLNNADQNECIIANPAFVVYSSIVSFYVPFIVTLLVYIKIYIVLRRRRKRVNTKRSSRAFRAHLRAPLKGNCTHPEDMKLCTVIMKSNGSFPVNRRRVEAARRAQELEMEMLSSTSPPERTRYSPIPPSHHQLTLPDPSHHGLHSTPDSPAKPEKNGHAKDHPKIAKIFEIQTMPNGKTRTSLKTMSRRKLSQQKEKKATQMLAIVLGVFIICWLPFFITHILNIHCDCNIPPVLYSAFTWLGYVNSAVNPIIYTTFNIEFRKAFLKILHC
Description: Binding affinity towards human cloned dopamine (hD2s) receptors expressed in CHO cell membranes using [3H]spiperone

[4] = molecular target: T3, 5-hydroxytryptamine receptor 1A (Mus musculus, UniProt Q64264); assay: Binding affinity for 5-hydroxytryptamine 1A receptor
T3 sequence (Q64264 whole entry): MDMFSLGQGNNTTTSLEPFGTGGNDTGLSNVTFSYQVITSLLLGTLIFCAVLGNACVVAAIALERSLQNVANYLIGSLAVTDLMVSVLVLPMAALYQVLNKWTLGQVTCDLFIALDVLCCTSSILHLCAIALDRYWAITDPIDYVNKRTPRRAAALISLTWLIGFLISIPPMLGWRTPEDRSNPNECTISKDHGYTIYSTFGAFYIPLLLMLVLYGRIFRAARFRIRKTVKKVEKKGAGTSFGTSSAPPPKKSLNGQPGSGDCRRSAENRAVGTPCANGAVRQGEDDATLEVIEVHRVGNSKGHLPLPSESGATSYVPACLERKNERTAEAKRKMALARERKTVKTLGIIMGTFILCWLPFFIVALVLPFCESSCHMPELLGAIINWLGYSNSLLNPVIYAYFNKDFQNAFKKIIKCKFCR

[5] = molecular target: T4, Adrenergic receptor alpha-1 (Homo sapiens, UniProt P35348+P25100+P35368); assay: Binding affinity for Alpha-1 adrenergic receptor; format: protein assay
T4 sequence (P35348 whole entry): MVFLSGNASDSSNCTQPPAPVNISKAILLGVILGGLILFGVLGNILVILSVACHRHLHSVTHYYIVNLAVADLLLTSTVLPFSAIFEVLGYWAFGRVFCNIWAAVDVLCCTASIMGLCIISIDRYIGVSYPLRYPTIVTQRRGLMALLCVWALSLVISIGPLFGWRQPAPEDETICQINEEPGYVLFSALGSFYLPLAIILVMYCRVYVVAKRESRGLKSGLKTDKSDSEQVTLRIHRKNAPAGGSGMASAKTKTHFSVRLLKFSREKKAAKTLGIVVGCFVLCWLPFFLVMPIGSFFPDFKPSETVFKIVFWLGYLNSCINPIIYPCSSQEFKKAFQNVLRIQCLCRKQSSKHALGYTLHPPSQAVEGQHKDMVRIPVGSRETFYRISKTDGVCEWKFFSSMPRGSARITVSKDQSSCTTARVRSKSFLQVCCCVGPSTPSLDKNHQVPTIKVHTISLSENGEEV
T4 sequence (P25100 whole entry): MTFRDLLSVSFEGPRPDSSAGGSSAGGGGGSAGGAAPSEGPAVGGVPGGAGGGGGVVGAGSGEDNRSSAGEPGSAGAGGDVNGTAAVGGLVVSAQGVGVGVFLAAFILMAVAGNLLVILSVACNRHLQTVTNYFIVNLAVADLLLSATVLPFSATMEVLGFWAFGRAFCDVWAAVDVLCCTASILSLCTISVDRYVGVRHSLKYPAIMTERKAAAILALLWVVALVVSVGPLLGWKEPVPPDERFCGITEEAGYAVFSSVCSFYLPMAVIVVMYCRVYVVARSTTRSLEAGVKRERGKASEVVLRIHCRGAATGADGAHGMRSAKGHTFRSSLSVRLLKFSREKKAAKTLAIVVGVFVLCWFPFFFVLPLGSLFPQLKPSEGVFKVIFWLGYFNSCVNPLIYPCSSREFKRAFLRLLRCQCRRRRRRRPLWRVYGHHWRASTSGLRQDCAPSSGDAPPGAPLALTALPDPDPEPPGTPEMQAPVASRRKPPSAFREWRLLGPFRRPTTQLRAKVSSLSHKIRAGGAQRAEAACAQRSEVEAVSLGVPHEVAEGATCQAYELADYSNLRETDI
T4 sequence (P35368 whole entry): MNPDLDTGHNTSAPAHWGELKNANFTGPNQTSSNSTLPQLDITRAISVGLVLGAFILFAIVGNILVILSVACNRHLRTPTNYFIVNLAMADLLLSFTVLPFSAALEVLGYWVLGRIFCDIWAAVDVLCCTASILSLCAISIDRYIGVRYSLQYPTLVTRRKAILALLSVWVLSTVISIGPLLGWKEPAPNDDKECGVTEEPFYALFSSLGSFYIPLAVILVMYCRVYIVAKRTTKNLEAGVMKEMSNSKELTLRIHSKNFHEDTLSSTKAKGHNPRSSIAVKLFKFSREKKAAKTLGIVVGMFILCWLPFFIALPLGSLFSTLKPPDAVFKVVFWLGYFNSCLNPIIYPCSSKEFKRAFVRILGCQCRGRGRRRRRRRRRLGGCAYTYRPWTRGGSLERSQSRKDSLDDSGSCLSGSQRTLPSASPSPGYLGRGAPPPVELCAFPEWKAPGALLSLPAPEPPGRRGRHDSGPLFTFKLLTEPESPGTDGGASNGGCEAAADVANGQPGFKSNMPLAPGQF

Mus musculus = assay: Dose required to inhibit locomotor activity in mice when administered subcutaneously; format: functional; details: sc
D(2) dopamine receptor [6] = molecular target: T2, D(2) dopamine receptor; remark: listed apart in the source
Description: Antagonistic activity towards dopamine D2 receptor using radioligand [3H]spiperone in rat striatal membranes

D(4) dopamine receptor [7] = molecular target: T1, D(4) dopamine receptor; assay: Binding affinity towards human cloned dopamine (hD4.4) receptor expressed in CHO cells using [3H]spiperone as radioligand; format: cell-based

SMILES	Ki (D(4) dopamine receptor [1]) [nM]	Ki (D(2) dopamine receptor [2]) [nM]	Ki (D(3) dopamine receptor) [nM]	Ki (D(2) dopamine receptor [3]) [nM]	Ki [4] [nM]	Ki [5] [nM]	ED50 (Mus musculus) [mg/kg]	Ki (D(2) dopamine receptor [6]) [nM]	Ki (D(4) dopamine receptor [7]) [nM]
Oc1ccc(N2CCN(Cc3ccccc3)CC2)cc1	91.8	120	> 400	> 300	–	–	–	–	–
Oc1cccc(N2CCN(Cc3ccccc3)CC2)c1	> 400	–	28.9	–	> 1000	> 1000	1.4	–	–
CS(=O)(=O)Nc1cc(OCCNCc2ccccc2)ccc1Cl	–	1.6	11	75.8	–	–	–	3	–
Oc1ccccc1OCCNCc1ccccc1	–	9.6	281	456	–	–	–	191	297
Nc1cc(OCCNCc2ccccc2)ccc1Cl	–	237	> 1000	> 1000	–	–	–	–	27.2
CS(=O)(=O)Nc1cc(OCCNCc2ccccc2)ccc1F	–	7.9	> 5000	> 10000	–	–	–	24.1	–
CS(=O)(=O)Nc1cc(OCCNCc2cccs2)ccc1F	> 400	19.7	> 400	> 300	–	–	–	11.7	–
Oc1cccc(OCCNCc2ccccc2)c1	–	3.6	11	75.8	1780	5291	0.08	101	80.6
Oc1ccc(OCCNCc2ccccc2)cc1	–	113	> 5000	> 10000	–	–	–	–	277
CS(=O)(=O)Nc1cc(OCCNCc2cccs2)ccc1Cl	–	2.6	27.8	9	–	–	–	6	137
c1ccc(CNCCOc2ccccc2)cc1	–	68.4	> 400	> 300	–	–	–	241	94
CS(=O)(=O)Nc1cccc(OCCNCc2ccccc2)c1	–	4.4	42.5	37.6	–	–	–	29.3	500
Oc1ccccc1N1CCN(Cc2ccccc2)CC1	> 400	64.7	> 400	> 300	–	–	–	118	–
c1ccc(CN2CCN(c3ccccc3)CC2)cc1	267	16.2	> 400	> 300	–	–	–	124	–
